Here are results for six compounds from patent US11279707B2, “NEK inhibitors and methods of use” (DANA-FARBER CANCER INSTITUTE, INC., priority 2017, dated 2022).

Broadly, the IC50 is the point on the concentration scale where inhibition reaches its midpoint. High values mean weaker potency in that assay, low ones greater potency in that assay.

Assay type in all cases: biochemical
The target in experiment [1] is T1, DMPK (Homo sapiens, UniProt Q09013).
T1 sequence (Q09013 1-629): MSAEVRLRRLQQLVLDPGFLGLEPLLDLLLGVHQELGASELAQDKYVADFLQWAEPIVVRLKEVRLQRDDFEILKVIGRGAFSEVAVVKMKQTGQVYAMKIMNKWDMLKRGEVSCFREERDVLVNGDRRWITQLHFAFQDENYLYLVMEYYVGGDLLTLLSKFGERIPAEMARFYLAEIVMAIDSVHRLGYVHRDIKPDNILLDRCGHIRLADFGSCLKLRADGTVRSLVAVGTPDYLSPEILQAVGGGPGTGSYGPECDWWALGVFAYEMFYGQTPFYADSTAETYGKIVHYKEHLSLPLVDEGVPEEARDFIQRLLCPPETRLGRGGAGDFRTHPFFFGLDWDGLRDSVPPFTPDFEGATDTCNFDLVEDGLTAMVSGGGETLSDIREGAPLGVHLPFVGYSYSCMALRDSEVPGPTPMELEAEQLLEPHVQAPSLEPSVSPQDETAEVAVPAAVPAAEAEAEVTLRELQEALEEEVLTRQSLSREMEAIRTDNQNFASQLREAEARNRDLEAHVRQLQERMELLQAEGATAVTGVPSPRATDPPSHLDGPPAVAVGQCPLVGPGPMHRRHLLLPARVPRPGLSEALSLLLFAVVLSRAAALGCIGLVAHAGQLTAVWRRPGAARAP
Nature of the experiment: kinase inhibition, DMPK.

The target of experiment [2] is T2, MERTK (Homo sapiens, UniProt Q12866).
T2 sequence (Q12866 21-999): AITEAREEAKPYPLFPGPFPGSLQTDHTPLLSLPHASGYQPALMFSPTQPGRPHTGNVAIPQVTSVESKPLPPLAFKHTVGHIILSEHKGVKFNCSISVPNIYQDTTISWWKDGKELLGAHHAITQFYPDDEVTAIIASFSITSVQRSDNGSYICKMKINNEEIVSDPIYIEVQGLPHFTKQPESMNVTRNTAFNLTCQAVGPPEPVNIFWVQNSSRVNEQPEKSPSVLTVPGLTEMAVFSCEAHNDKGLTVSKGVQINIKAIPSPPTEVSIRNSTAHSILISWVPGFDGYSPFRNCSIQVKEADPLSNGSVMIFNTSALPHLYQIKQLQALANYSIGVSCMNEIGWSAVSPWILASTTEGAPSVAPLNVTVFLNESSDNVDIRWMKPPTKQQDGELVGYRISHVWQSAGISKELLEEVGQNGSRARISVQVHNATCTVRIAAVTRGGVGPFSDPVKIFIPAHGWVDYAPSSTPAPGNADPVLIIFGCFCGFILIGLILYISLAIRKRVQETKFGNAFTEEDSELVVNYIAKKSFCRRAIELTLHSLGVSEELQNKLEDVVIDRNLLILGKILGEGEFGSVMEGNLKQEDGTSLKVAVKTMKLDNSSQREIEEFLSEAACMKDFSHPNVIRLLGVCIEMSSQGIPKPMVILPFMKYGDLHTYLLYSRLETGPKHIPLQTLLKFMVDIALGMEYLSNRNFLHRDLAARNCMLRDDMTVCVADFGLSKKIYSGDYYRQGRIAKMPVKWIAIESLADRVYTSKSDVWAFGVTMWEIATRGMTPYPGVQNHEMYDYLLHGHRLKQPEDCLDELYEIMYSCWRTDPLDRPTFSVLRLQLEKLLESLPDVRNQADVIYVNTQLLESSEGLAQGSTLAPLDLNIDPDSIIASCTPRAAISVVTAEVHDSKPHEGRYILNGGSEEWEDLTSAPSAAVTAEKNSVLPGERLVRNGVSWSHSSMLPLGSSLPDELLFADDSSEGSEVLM
Nature of the experiment: kinase inhibition, MERTK.

Experiment [3] deals with NEK6 (Homo sapiens, UniProt Q9HC98). Nature of the experiment: kinase inhibition, NEK6.
Sequence of NEK6 (Q9HC98 whole entry, species assumed): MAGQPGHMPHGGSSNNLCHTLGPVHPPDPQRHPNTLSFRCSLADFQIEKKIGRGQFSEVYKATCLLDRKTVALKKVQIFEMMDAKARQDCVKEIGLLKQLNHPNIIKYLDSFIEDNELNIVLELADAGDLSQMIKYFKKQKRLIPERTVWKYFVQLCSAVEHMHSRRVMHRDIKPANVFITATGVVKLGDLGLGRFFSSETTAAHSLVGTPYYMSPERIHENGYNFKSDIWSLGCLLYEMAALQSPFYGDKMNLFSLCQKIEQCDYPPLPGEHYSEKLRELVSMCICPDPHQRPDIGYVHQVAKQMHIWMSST
Experiment [4] addresses CLK. Nature of the experiment: kinase inhibition, CLK.
In experiment [5] the target is GRK4 (Homo sapiens, UniProt P32298). Kind of experiment: kinase inhibition, GRK4.
Sequence of GRK4 (P32298 whole entry, species assumed): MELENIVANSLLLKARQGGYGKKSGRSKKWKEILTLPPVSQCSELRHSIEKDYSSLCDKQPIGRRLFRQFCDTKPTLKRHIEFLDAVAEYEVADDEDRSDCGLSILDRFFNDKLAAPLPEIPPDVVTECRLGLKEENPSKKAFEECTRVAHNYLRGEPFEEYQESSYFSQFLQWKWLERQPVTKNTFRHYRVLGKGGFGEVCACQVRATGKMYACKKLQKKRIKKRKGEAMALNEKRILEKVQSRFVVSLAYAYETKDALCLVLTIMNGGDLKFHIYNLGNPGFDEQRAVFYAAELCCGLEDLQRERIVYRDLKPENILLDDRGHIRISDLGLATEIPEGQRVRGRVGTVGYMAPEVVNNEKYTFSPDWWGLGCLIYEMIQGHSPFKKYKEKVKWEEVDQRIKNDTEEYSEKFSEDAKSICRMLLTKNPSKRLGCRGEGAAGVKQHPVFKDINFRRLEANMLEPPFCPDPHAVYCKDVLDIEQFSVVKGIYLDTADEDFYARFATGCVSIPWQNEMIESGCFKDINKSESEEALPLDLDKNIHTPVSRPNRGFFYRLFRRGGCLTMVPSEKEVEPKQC

As for `COc1cc(C2CCN(C)CC2)ccc1Nc1ncc2c(n1)n1c(cc3ccccc31)c(=O)n2C` [Compound I-6], the IC50 is 250 to 1000 nM in experiment [1], no less than 5000 nM in experiment [2], 250 to 1000 nM in experiment [3] and 50 to 250 nM in experiment [4].
For `COc1cc(N2CCN(C)CC2)ccc1Nc1ncc2c(n1)n1c(cc3ccccc31)c(=O)n2C` [Compound I-3], the concentration for half-maximal inhibition (IC50) in experiment [1] is no less than 5000 nM; in experiment [2], no less than 5000 nM; in experiment [3], 50 to 250 nM; in experiment [4] it was 1000 to 5000 nM.
As for `COc1cc(N2CCC(O)CC2)ccc1Nc1ncc2c(n1)n1c(cc3ccccc31)c(=O)n2C` [Compound I-2], the IC50 is no less than 5000 nM in experiment [1], no less than 5000 nM in experiment [2], 250 to 1000 nM in experiment [3] and 250 to 1000 nM in experiment [4].
With `CN1CCN(c2ccc(Nc3ncc4c(n3)n3c(cc5ccccc53)c(=O)n4C)cc2C(F)(F)F)CC1` [Compound I-5], the half-inhibitory concentration (IC50) in experiment [1] is no less than 5000 nM; in experiment [2] it was 1000 to 5000 nM; in experiment [3] it was no less than 5000 nM; in experiment [4], 1000 to 5000 nM.
As for `COc1cc(C(=O)N2CCC(N3CCN(C)CC3)CC2)ccc1Nc1ncc2c(n1)n1c(cc3ccccc31)c(=O)n2C` [Compound I-4], the half-maximal inhibitory concentration (IC50) in experiment [1] was 250 to 1000 nM; in experiment [2], no less than 5000 nM; in experiment [3], 1000 to 5000 nM; in experiment [4], 50 to 250 nM.
In the case of `CN1CCN(c2ccc(Nc3ncc4c(n3)n3c(cc5ccccc53)c(=O)n4C)cc2)CC1` [Compound I-1], the 50% inhibitory concentration (IC50) in experiment [1] is 50 to 250 nM; in experiment [2], 250 to 1000 nM; in experiment [3] it was 50 to 250 nM; in experiment [5] it was 1000 to 5000 nM; in experiment [4] it was 50 to 250 nM.
